PubChem BioAssay (NCI)
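Results reflect a 48-hour exposure of cells in 96-well plates to compound at five concentrations. GI50: concentration for 50% inhibition of growth. TGI marks complete inhibition of growth.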

What follows are molecules tested on NCI-H23 lung (assay: inhibition of tumour cell growth, NCI panel, 48 h).
Molecule O=C(/C(=C/c1cccc([N+](=O)[O-])c1)c1ccccc1)c1ccccc1 has a GI50 of 2.92 µM and a TGI of 17 µM. For CCCCCN(CCCCC)CC(O)c1ccc(Cl)c2ccccc12 (centres undefined), the GI50 was 4.5 µM and the TGI was 19.9 µM. Cc1ccc(NC(=O)c2sc3nc(C)c(C(O)c4ccccc4)cc3c2N)cc1 (centres undefined) showed a GI50 of 0.722 µM and a TGI of over 100 µM.

These molecules were tested on NCI-H460 lung (assay: inhibition of tumour cell growth, NCI panel, 48 h).
O=C(/C(=C/c1cccc([N+](=O)[O-])c1)c1ccccc1)c1ccccc1 showed a GI50 of 3.32 µM and a TGI of 12.6 µM. Work on CCCCCN(CCCCC)CC(O)c1ccc(Cl)c2ccccc12 (centres undefined) yielded a GI50 of 3.72 µM and a TGI of 19.1 µM. CC(=O)Nc1ccc2[nH]c(C(=O)N3CC(CCl)c4c3cc(N)c3ccccc43)cc2c1 (centres undefined) was tested, and the TGI was 11.6 µM. Work on Cc1ccc(NC(=O)c2sc3nc(C)c(C(O)c4ccccc4)cc3c2N)cc1 (centres undefined) yielded a GI50 of 0.359 µM and a TGI of 5.32 µM.

The molecules below were run on NCI-H522 lung (assay: inhibition of tumour cell growth, NCI panel, 48 h).
Work on O=C(/C(=C/c1cccc([N+](=O)[O-])c1)c1ccccc1)c1ccccc1 yielded a GI50 of 1.91 µM and a TGI of 3.77 µM. Work on CCCCCN(CCCCC)CC(O)c1ccc(Cl)c2ccccc12 (centres undefined) yielded a GI50 of 14.4 µM and a TGI of 32.1 µM. CC(=O)Nc1ccc2[nH]c(C(=O)N3CC(CCl)c4c3cc(N)c3ccccc43)cc2c1 (centres undefined) showed a TGI of under 0.01 µM. Molecule Cc1ccc(NC(=O)c2sc3nc(C)c(C(O)c4ccccc4)cc3c2N)cc1 (centres undefined) has a GI50 of 0.617 µM and a TGI of over 48.7 µM.

What follows are molecules tested on NCI/ADR-RES ovarian (assay: inhibition of tumour cell growth, NCI panel, 48 h).
In the case of O=C(/C(=C/c1cccc([N+](=O)[O-])c1)c1ccccc1)c1ccccc1, the GI50 is reported as 2.98 µM and the TGI is reported as over 100 µM. For CCCCCN(CCCCC)CC(O)c1ccc(Cl)c2ccccc12 (centres undefined), the GI50 was 11.1 µM and the TGI was 24.8 µM. With CC(=O)Nc1ccc2[nH]c(C(=O)N3CC(CCl)c4c3cc(N)c3ccccc43)cc2c1 (centres undefined) the TGI was 0.0534 µM. With Cc1ccc(NC(=O)c2sc3nc(C)c(C(O)c4ccccc4)cc3c2N)cc1 (centres undefined) the GI50 was 0.39 µM and the TGI was 18.9 µM. C[C@H](C(=O)N[C@@H](Cc1ccc(-c2ccccc2)cc1)C(=O)NC1CC(C)(C)NC(C)(C)C1)c1ccc(-c2ccccc2)c(F)c1 gave a GI50 of 1.88 µM and a TGI of 4.47 µM.

These molecules were tested on OVCAR-3 ovarian (assay: inhibition of tumour cell growth, NCI panel, 48 h).
O=C(/C(=C/c1cccc([N+](=O)[O-])c1)c1ccccc1)c1ccccc1 showed a GI50 of 3.66 µM and a TGI of 10.9 µM. CCCCCN(CCCCC)CC(O)c1ccc(Cl)c2ccccc12 (centres undefined) gave a GI50 of 12.4 µM and a TGI of 26.5 µM. CC(=O)Nc1ccc2[nH]c(C(=O)N3CC(CCl)c4c3cc(N)c3ccccc43)cc2c1 (centres undefined) showed a TGI of 12.6 µM. Cc1ccc(NC(=O)c2sc3nc(C)c(C(O)c4ccccc4)cc3c2N)cc1 (centres undefined) gave a GI50 of 0.351 µM and a TGI of 11.4 µM.

What follows are molecules tested on OVCAR-4 ovarian (assay: inhibition of tumour cell growth, NCI panel, 48 h).
In the case of O=C(/C(=C/c1cccc([N+](=O)[O-])c1)c1ccccc1)c1ccccc1, the GI50 is reported as 4.26 µM and the TGI is reported as 16 µM. CCCCCN(CCCCC)CC(O)c1ccc(Cl)c2ccccc12 (centres undefined) gave a GI50 of 12.2 µM and a TGI of 72.5 µM. Cc1ccc(NC(=O)c2sc3nc(C)c(C(O)c4ccccc4)cc3c2N)cc1 (centres undefined) was tested, and the GI50 was 1.55 µM and the TGI was 47 µM.

What follows are molecules tested on OVCAR-5 ovarian (assay: inhibition of tumour cell growth, NCI panel, 48 h).
Work on O=C(/C(=C/c1cccc([N+](=O)[O-])c1)c1ccccc1)c1ccccc1 yielded a GI50 of 5.56 µM and a TGI of 25.8 µM. In the case of CCCCCN(CCCCC)CC(O)c1ccc(Cl)c2ccccc12 (centres undefined), the GI50 is reported as 9.41 µM and the TGI is reported as 22 µM. For CC(=O)Nc1ccc2[nH]c(C(=O)N3CC(CCl)c4c3cc(N)c3ccccc43)cc2c1 (centres undefined), the TGI was 1.08 µM. Work on Cc1ccc(NC(=O)c2sc3nc(C)c(C(O)c4ccccc4)cc3c2N)cc1 (centres undefined) yielded a GI50 of 0.698 µM and a TGI of 24.1 µM.

The molecules below were run on OVCAR-8 ovarian (assay: inhibition of tumour cell growth, NCI panel, 48 h).
Work on CCCCCN(CCCCC)CC(O)c1ccc(Cl)c2ccccc12 (centres undefined) yielded a GI50 of 16.6 µM and a TGI of 36.6 µM. For CC(=O)Nc1ccc2[nH]c(C(=O)N3CC(CCl)c4c3cc(N)c3ccccc43)cc2c1 (centres undefined), the TGI was under 0.027 µM. Cc1ccc(NC(=O)c2sc3nc(C)c(C(O)c4ccccc4)cc3c2N)cc1 (centres undefined) was tested, and the GI50 was 0.611 µM and the TGI was over 100 µM.

Each molecule was assayed on PC-3 prostate (assay: inhibition of tumour cell growth, NCI panel, 48 h).
In the case of O=C(/C(=C/c1cccc([N+](=O)[O-])c1)c1ccccc1)c1ccccc1, the GI50 is reported as 4.54 µM and the TGI is reported as 36.2 µM. For CCCCCN(CCCCC)CC(O)c1ccc(Cl)c2ccccc12 (centres undefined), the GI50 was 12.3 µM and the TGI was 31.5 µM. Work on Cc1ccc(NC(=O)c2sc3nc(C)c(C(O)c4ccccc4)cc3c2N)cc1 (centres undefined) yielded a GI50 of 0.429 µM and a TGI of 20.7 µM.

These molecules were tested on RPMI-8226 leukemia (assay: inhibition of tumour cell growth, NCI panel, 48 h).
Work on O=C(/C(=C/c1cccc([N+](=O)[O-])c1)c1ccccc1)c1ccccc1 yielded a GI50 of 2.34 µM and a TGI of 7.68 µM. Molecule CCCCCN(CCCCC)CC(O)c1ccc(Cl)c2ccccc12 (centres undefined) has a GI50 of 6.43 µM and a TGI of 27.6 µM. Cc1ccc(NC(=O)c2sc3nc(C)c(C(O)c4ccccc4)cc3c2N)cc1 (centres undefined) showed a GI50 of 0.421 µM and a TGI of 43.3 µM.

The molecules below were run on RXF 393 renal (assay: inhibition of tumour cell growth, NCI panel, 48 h).
Work on O=C(/C(=C/c1cccc([N+](=O)[O-])c1)c1ccccc1)c1ccccc1 yielded a GI50 of 3.39 µM and a TGI of 9.06 µM. Molecule CCCCCN(CCCCC)CC(O)c1ccc(Cl)c2ccccc12 (centres undefined) has a GI50 of 2.13 µM and a TGI of 8 µM. Cc1ccc(NC(=O)c2sc3nc(C)c(C(O)c4ccccc4)cc3c2N)cc1 (centres undefined) was tested, and the GI50 was 0.333 µM and the TGI was 3.29 µM.

These molecules were tested on SF-268 CNS (assay: inhibition of tumour cell growth, NCI panel, 48 h).
Work on O=C(/C(=C/c1cccc([N+](=O)[O-])c1)c1ccccc1)c1ccccc1 yielded a GI50 of 3.9 µM and a TGI of 15.5 µM. With CCCCCN(CCCCC)CC(O)c1ccc(Cl)c2ccccc12 (centres undefined) the GI50 was 13.5 µM and the TGI was 30.1 µM. Molecule CC(=O)Nc1ccc2[nH]c(C(=O)N3CC(CCl)c4c3cc(N)c3ccccc43)cc2c1 (centres undefined) has a TGI of under 0.01 µM. In the case of Cc1ccc(NC(=O)c2sc3nc(C)c(C(O)c4ccccc4)cc3c2N)cc1 (centres undefined), the GI50 is reported as 2.47 µM and the TGI is reported as over 100 µM.

The molecules below were run on SF-295 CNS (assay: inhibition of tumour cell growth, NCI panel, 48 h).
With O=C(/C(=C/c1cccc([N+](=O)[O-])c1)c1ccccc1)c1ccccc1 the GI50 was 4.08 µM and the TGI was 20.2 µM. Work on CCCCCN(CCCCC)CC(O)c1ccc(Cl)c2ccccc12 (centres undefined) yielded a GI50 of 3.99 µM and a TGI of 26.3 µM. In the case of Cc1ccc(NC(=O)c2sc3nc(C)c(C(O)c4ccccc4)cc3c2N)cc1 (centres undefined), the GI50 is reported as 0.339 µM and the TGI is reported as 4.03 µM.

Each molecule was assayed on SF-539 CNS (assay: inhibition of tumour cell growth, NCI panel, 48 h).
With O=C(/C(=C/c1cccc([N+](=O)[O-])c1)c1ccccc1)c1ccccc1 the GI50 was 3.49 µM and the TGI was 11.9 µM. Cc1ccc(NC(=O)c2sc3nc(C)c(C(O)c4ccccc4)cc3c2N)cc1 (centres undefined) gave a GI50 of 0.287 µM and a TGI of 1.3 µM.

Each molecule was assayed on SK-MEL-2 melanoma (assay: inhibition of tumour cell growth, NCI panel, 48 h).
With CCCCCN(CCCCC)CC(O)c1ccc(Cl)c2ccccc12 (centres undefined) the GI50 was 17.4 µM and the TGI was 38.2 µM. With CC(=O)Nc1ccc2[nH]c(C(=O)N3CC(CCl)c4c3cc(N)c3ccccc43)cc2c1 (centres undefined) the TGI was under 0.0192 µM. For Cc1ccc(NC(=O)c2sc3nc(C)c(C(O)c4ccccc4)cc3c2N)cc1 (centres undefined), the GI50 was 1.32 µM and the TGI was 67.3 µM.
